Patent US20170150719A1, “FUNGICIDAL PYRAZOLES AND THEIR MIXTURES” (E I DU PONT DE NEMOURS AND COMPANY, priority 2010, published 2017)

Key:
[1] = system: Puccinia recondita f. sp. tritici; experiment: Test H: wheat leaf rust, preventive spray on wheat seedlings, visual disease rating; conditions: 100 = 100% disease control; for pest or weed control at 200 µg/mL: read-out: Test H rating (disease control), wheat leaf rust, sprayed the day before inoculation; for Test H rating (% disease control): preventive spray, rating without asterisk
[2] = system: Puccinia recondita f. sp. tritici; experiment: Test G: wheat leaf rust, spray after inoculation (curative) on wheat seedlings, visual disease rating; type: in vivo; conditions: 100 = 100% disease control; for Test G rating (% disease control): spray after inoculation, rating without asterisk
Source text: (§1) A hyphen (-) indicates no test results.

[3] = system: Septoria nodorum; experiment: Test E: Septoria glume blotch, preventive spray on wheat seedlings, visual disease rating; conditions: 100 = 100% disease control; for pest or weed control at 200 µg/mL: Parastagonospora nodorum, in Triticum aestivum, read-out: Test E rating (disease control), Septoria glume blotch; for Test E rating (% disease control): Septoria glume blotch on wheat, preventive spray, rating without asterisk
[4] = system: Alternaria solani; experiment: Test B: tomato early blight, preventive spray on tomato seedlings, visual disease rating; conditions: for pest or weed control at 200 µg/mL: Alternaria solani, in Solanum lycopersicum, read-out: Test B rating (disease control); for Test B rating (% disease control): preventive spray, rating without asterisk
[5] = system: Septoria tritici; experiment: Test F: wheat leaf blotch, preventive spray on wheat seedlings, visual disease rating; type: in vivo; conditions: 100 = 100% disease control, 0 = no disease control relative to the controls; for pest or weed control at 200 µg/mL: Zymoseptoria tritici
Source text: as §1

[6] = system: Blumeria graminis f. sp. tritici; experiment: Test I: wheat powdery mildew, preventive spray on wheat seedlings, visual disease rating; conditions: 100 = 100% disease control; for pest or weed control at 200 µg/mL: Blumeria graminis, in Triticum aestivum, read-out: Test I rating (disease control), wheat powdery mildew; for Test I rating (% disease control): preventive spray, rating without asterisk
Experimental: General protocol for preparing test suspensions for Tests A-I: the test compounds were first dissolved in acetone in an amount equal to 3% of the final volume and then suspended at the desired concentration (in ppm) in acetone and purified water (50/50 mix by volume) containing 250 ppm of the surfactant Trem® 014 (polyhydric alcohol esters). The resulting test suspensions were then used in Tests A-I. Each test was conducted in triplicate, and the results were averaged. Spraying a 200 ppm test suspension to the point of run-off on the test plants was the equivalent of a rate of about 800 g/ha. Unless otherwise indicated, the rating values indicate a 200 ppm test suspension was used. (An asterisk “*” next to the rating value indicates a 40 ppm test suspension was used.)
The test suspension was sprayed to the point of run-off on wheat seedlings. The following day the seedlings were inoculated with a spore dust of Blumeria graminis f. sp. tritici (also known as Erysiphe graminis f. sp. tritici, the causal agent of wheat powdery mildew) and incubated in a growth chamber at 20° C. for 8 days, after which time visual disease ratings were made.

[7] = system: Phytophthora infestans; experiment: whole plant or invertebrate; type: in vivo; conditions: for pest or weed control at 200 µg/mL: Phytophthora infestans, in Solanum lycopersicum, read-out: Test C rating (disease control); for Test C rating (% disease control): preventive spray, rating without asterisk
[8] = system: Botrytis cinerea; experiment: Test A: tomato Botrytis, preventive spray on tomato seedlings, visual disease rating; conditions: 100 = 100% disease control; for pest or weed control at 200 µg/mL: Botrytis cinerea, in Solanum lycopersicum, read-out: Test A rating (disease control), tomato Botrytis; for Test A rating (% disease control): preventive spray, 0 = no control relative to controls, rating without asterisk
[9] = system: Blumeria graminis f. sp. tritici; experiment: Test K (K1-K5): wheat powdery mildew, Compound 81 alone and in mixtures, observed and Colby expected control; type: in vivo
[10] = system: Septoria tritici; experiment: Test M (M1-M5): wheat leaf blotch, Compound 81 alone and in mixtures, observed and Colby expected control; type: in vivo
[11] = system: Puccinia recondita f sp. tritici; experiment: Test L (L1-L5): wheat leaf rust, Compound 81 alone and in mixtures, observed and Colby expected control; type: in vivo; conditions: for Test L5 Obsd, disease control rating: wheat leaf rust
[12] = sprayed after inoculation, 0 = no disease control
[13] = 0 = no disease control relative to the controls
[14] = tomato early blight, 100 = 100% disease control
[15] = tomato late blight, 100 = 100% disease control

Structure (SMILES): Cc1nn(C)c(Nc2c(Cl)cc(Cl)cc2Cl)c1-c1ccc(F)cc1F [compound 165]
- Test H rating (disease control) ([1]; wheat leaf rust, sprayed the day before inoculation, 0 = no disease control): 99%
- Test G rating (disease control) [2, 12]: 67%
- Test E rating (disease control) ([3]; Septoria glume blotch, 0 = no disease control relative to the controls): 0%
- Test B rating (disease control) ([4]; tomato early blight, 100 = 100% disease control, 0 = no disease control relative to the controls): 0%
- Test F rating (disease control) [5]: 100%
- Test I rating (disease control) ([6]; wheat powdery mildew, 0 = no disease control relative to the controls): 99%
- Test C rating (disease control) ([7]; tomato late blight, 100 = 100% disease control, 0 = no disease control relative to the controls): 0%
- Test A rating (disease control) ([8]; tomato Botrytis, 0 = no disease control relative to the controls): 100%

Structure (SMILES): Cc1nn(C)c(Nc2c(Cl)cc(F)cc2Cl)c1-c1c(F)cccc1F [Compound 142, N-(2,6-dichloro-4-fluorophenyl)-4-(2,6-difluorophenyl)-1,3-dimethyl-1H-pyrazol-5-amine]
- pest or weed control at 200 µg/mL ([1]; 0 = no disease control): 100%
- pest or weed control at 200 µg/mL [2, 12]: 0%
- pest or weed control at 200 µg/mL [3, 13]: 92%
- pest or weed control at 200 µg/mL [4]: 96%
- pest or weed control at 200 µg/mL [5]: 100%
- pest or weed control at 200 µg/mL [6, 13]: 100%
- pest or weed control at 200 µg/mL [7]: 0%
- pest or weed control at 200 µg/mL [8, 13]: 100%

Structure (SMILES): Cc1nn(C)c(Nc2c(F)cc(Cl)cc2Cl)c1-c1ccc(F)cc1Cl [Compound 136, 4-(2-chloro-4-fluorophenyl)-N-(2,4-dichloro-6-fluorophenyl)-1,3-dimethyl-1H-pyrazol-5-amine]
- pest or weed control at 200 µg/mL ([1]; 0 = no disease control): 100%
- pest or weed control at 200 µg/mL [2, 12]: 100%
- pest or weed control at 200 µg/mL [3, 13]: 100%
- pest or weed control at 200 µg/mL [4]: 100%
- pest or weed control at 200 µg/mL [5]: 100%
- pest or weed control at 200 µg/mL [6, 13]: 100%
- pest or weed control at 200 µg/mL [7]: 0%
- pest or weed control at 200 µg/mL [8, 13]: 100%

Structure (SMILES): CCOc1ccc(-c2c(C)nn(C)c2Nc2c(F)cc(F)cc2Cl)c(F)c1 [compound 188]
- Test H rating (% disease control) ([1]; wheat leaf rust): 98%
- Test G rating (% disease control) [2]: 0%
- Test E rating (% disease control) [3]: 92%
- Test B rating (% disease control) [4, 14]: 99%
- Test I rating (% disease control) ([6]; wheat powdery mildew): 98%
- Test C rating (% disease control) [7, 15]: 0%
- Test A rating (% disease control) ([8]; tomato Botrytis): 100%

Structure (SMILES): Cc1nn(C)c(Nc2c(F)cc(F)cc2Br)c1-c1c(F)cccc1F [Compound 146, N-(2-bromo-4,6-difluorophenyl)-4-(2,6-difluorophenyl)-1,3-dimethyl-1H-pyrazol-5-amine]
- pest or weed control at 200 µg/mL ([1]; 0 = no disease control): 98%
- pest or weed control at 200 µg/mL [2, 12]: 74%
- pest or weed control at 200 µg/mL [3, 13]: 100%
- pest or weed control at 200 µg/mL [4]: 100%
- pest or weed control at 200 µg/mL [5]: 100%
- pest or weed control at 200 µg/mL [6, 13]: 100%
- pest or weed control at 200 µg/mL [7]: 0%

Structure (SMILES): Cc1nn(C)c(Nc2c(F)cccc2Cl)c1-c1ccc(F)cc1F [Compound 275, N-(2-chloro-6-fluorophenyl)-4-(2,4-difluorophenyl)-1,3-dimethyl-1H-pyrazol-5-amine]
- Test G rating (% disease control) [2]: 9%
- Test E rating (% disease control) [3]: 60%
- Test B rating (% disease control) [4, 14]: 99%
- Test C rating (% disease control) [7, 15]: 0%

Structure (SMILES): CC(C)CC(C)c1sccc1NC(=O)c1cn(C)nc1C(F)(F)F (centres unmarked) [penthiopyrad]
- Test K3 Obsd ([9]; component (b) 0.08 ppm alone): 0%
- Test K3 Obsd ([9]; component (b) 0.4 ppm alone): 0%
- Test K3 Obsd ([9]; component (b) 2 ppm alone): 99%
- Test K3 Obsd ([9]; component (b) 10 ppm alone): 100%
- Test M2 Obsd, disease control rating ([10]; component (b) 0.08 ppm alone): 0%
- Test M2 Obsd, disease control rating ([10]; component (b) 0.4 ppm alone): 0%
- Test L5 Obsd, disease control rating ([11]; component (b) 0.016 ppm alone): 9%
- Test L5 Obsd, disease control rating ([11]; component (b) 0.08 ppm alone): 55%
- Test L5 Obsd, disease control rating ([11]; component (b) 0.4 ppm alone): 68%
- Test L5 Obsd, disease control rating ([11]; component (b) 2 ppm alone): 99%

Structure (SMILES): CCOc1ccc(-c2c(C)nn(C)c2Nc2c(F)cc(Cl)cc2Cl)c(F)c1 [compound 190]
- Test H rating (% disease control) ([1]; wheat leaf rust): 96%
- Test G rating (% disease control) [2]: 9%
- Test E rating (% disease control) [3]: 0%
- Test B rating (% disease control) [4, 14]: 82%
- Test I rating (% disease control) ([6]; wheat powdery mildew): 95%
- Test C rating (% disease control) [7, 15]: 0%
- Test A rating (% disease control) ([8]; tomato Botrytis): 100%

Structure (SMILES): C=CCOC1=NS(=O)(=O)c2ccccc21 [probenazole]
- Test K1 Obsd ([9]; component (b) 10 ppm alone): 68%
- Test K1 Obsd ([9]; component (b) 40 ppm alone): 21%
- Test K1 Obsd ([9]; component (b) 200 ppm alone): 71%
- Test M1 Obsd, disease control rating ([10]; component (b) 10 ppm alone): 0%
- Test M1 Obsd, disease control rating ([10]; component (b) 40 ppm alone): 0%
- Test M1 Obsd, disease control rating ([10]; component (b) 200 ppm alone): 0%
- Test L1 Obsd ([11]; component (b) 10 ppm alone): 9%
- Test L1 Obsd ([11]; component (b) 40 ppm alone): 18%
- Test L1 Obsd ([11]; component (b) 200 ppm alone): 18%
